Results: patent US20200278355A1, “CONJUGATED PROTEINS AND USES THEREOF” (THE SCRIPPS RESEARCH INSTITUTE, priority 2017, published 2020)

Biological target: T1, RBM45-NR0B1 interaction (Homo sapiens, UniProt P51843)
T1 construct: endogenous in cells; host or cells: H460 cells (also H2122 and A549) stably expressing FLAG-RBM45 by lentiviral transduction (FLAG-pLJM1)
T1 sequence (P51843 1-470): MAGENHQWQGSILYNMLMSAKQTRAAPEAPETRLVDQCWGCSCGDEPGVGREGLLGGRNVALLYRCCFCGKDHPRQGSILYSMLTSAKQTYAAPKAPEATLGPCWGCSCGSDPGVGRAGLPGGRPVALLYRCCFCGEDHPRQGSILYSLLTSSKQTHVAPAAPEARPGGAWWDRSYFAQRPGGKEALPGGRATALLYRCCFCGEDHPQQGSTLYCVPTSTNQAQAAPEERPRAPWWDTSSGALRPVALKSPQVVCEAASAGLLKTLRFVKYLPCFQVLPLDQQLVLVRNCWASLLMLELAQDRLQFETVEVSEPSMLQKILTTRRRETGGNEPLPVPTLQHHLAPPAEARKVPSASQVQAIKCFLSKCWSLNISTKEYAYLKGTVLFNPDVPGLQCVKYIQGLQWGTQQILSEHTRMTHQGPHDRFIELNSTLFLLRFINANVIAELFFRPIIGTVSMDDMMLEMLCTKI
Assay: RBM45-NR0B1 interaction in NSCLC cells stably expressing FLAG-RBM45 (FLAG immunoprecipitation)
Type: cell-based
Conditions: 3 h; for blockade of the RBM45-NR0B1 interaction: H460 cells; for blockade of NR0B1 binding to FLAG-RBM45: H2122 and A549 cells
Protocol: FIG. 6A-FIG. 6F show characterization of NR0B1 ligands in KEAP1-mutant NSCLC cells. […] Dashed lines designate R values≥3 (DMSO/compound), which was used as a cutoff to define cysteines liganded by the indicated compounds. Insets show MS1 profiles for C274 in NR0B1 for DMSO (blue) versus compound (red) treatment. Data are from individual experiments representative of at least three biological replicates. […] (See also Table 5). […] H460 cells stably expressing FLAG-RBM45 were incubated with indicated compounds for 3 h, whereupon FLAG immunoprecipitates were performed and analyzed by immunoblotting. […] Experiments performed as described in (C). […] Dashed line designates R values (light/heavy) of <8, which was used as a cutoff for fast-turnover proteins. […] Charts comparing fraction of NRF2-regulated genes (as determined by RNAseq) for which the corresponding proteins are designated as fast or slow turnover (as determined in G) further divided into groups showing reduced expression (left) or not (right) on day 1 following NRF2 knockdown (as determined by isoTOP-ABPP).
FIG. 12A-FIG. 12G show characterization of NR0B1 ligands in Keap1-mutant NSCLC cells. […] Data obtained from isoTOP-ABPP experiments of H460 cells treated with compound (red traces) or DMSO (blue traces) for 3 h. […] Shown are MS1 profiles for quantified cysteines in NR0B1 following treatment with BPK-29 (40 μM, red; top) BPK-26 (40 μM, red; bottom) or DMSO (blue) for 3 h. […] KEAP1-null HEK293T cells stably expressing FLAG-RBM45 or FLAG-SNW1 were incubated with the indicated compounds for 3 h, after which FLAG immunoprecipitates were prepared from cell lysates. Immunoprecipitates and lysates were analyzed by immunoblotting for the indicated proteins. Dashed lines represent a lane that was cropped from this immunoblot. […] H2122 or A549 cells stably expressing FLAG-RBM45 were incubated with the indicated compounds for 3 h, after which FLAG immunoprecipitates were prepared. Immunoprecipitates and lysates were analyzed as described in (E). […] H2122 cells stably expressing FLAG-RBM45 or A549 cells stably expressing FLAG-SNW1 were incubated with indicated compounds for 3 h and FLAG immunoprecipitates were prepared and analyzed as described in (E).
Confluent 10 cm plates of indicated cell lines were rinsed once with warm PBS and incubated in serum/dye-free RPMI with indicated compounds or vehicle for 3 h at 37° C. Cells were washed once ice-cold PBS and snap frozen.
Cells were rinsed once with ice-cold PBS, and lysed by sonication in Triton IP buffer. Lysates were clarified by centrifugation at 16,000×g for 10 min. […] Proteins were resolved by SDS-PAGE, analyzed by immunoblotting and relative band intensities were quantified using ImageJ software.

Structure (SMILES)	blockade of the RBM45-NR0B1 interaction	blockade of NR0B1 binding to FLAG-RBM45
O=C(CCl)N(Cc1cccc(Cl)c1F)c1ccc(Cl)nc1 [BPK-26, 2-chloro-N-(3-chloro-2-fluorobenzyl)-N-(6-chloropyridin-3-yl)acetamide]	block	block
O=C(c1ccc(N2CCOCC2)cc1)N1CCCC(N(Cc2ccccc2)C(=O)CCl)CC1 (stereo not shown) [BPK-29, N-benzyl-2-chloro-N-(1-(4-morpholinobenzoyl)azepan-4-yl)acetamide]	block	block
